Reference: patent US9399656B2, “Compound, method for producing same, and use of same” (Microbial Chemistry Research Foundation, priority 2011, dated 2016)

Tests used:
Format in all cases: cell-based, human
[1] = system: PGE2 production in SW982 cell; experiment: PGE2 production inhibitory action in bradykinin-stimulated SW982 cells (HTRF kit); conditions: bradykinin 1 nM, 30 min, test substance 2 to 10,000 ng/mL, FIG. 5
Method: The compound represented by the Structural Formula (A) was evaluated for a PGE2 production inhibitory action as follows.
A SW982 cell which is a human […] cell line (purchased from ATCC (American Type Culture Collection)) was suspended into DMEM/F12 (Dulbecco's Modified Eagle Medium: Nutrient Mixture F-12, manufactured by Thermo Fisher Scientific) containing 10% fetal bovine serum (manufactured by Nichirei Corporation), followed by inoculating into a 96-well culture plate at 1×10^4 cells/well and incubating overnight.
After the incubation overnight, the medium in the 96-well culture plate containing the SW982 cells was replaced with HEPES-HANKS buffer (manufactured by NISSUI PHARMACEUTICAL CO., LTD.). […] After incubating for 30 min, a culture supernatant was collected, followed by measuring a PGE2 concentration A in the culture supernatant using a kit based on a HTRF (Homogeneous Time-Resolved Fluorescence) method (62P2APEB, manufactured by Cisbio Bioassays).
As a negative control, a PGE2 concentration B was measured in the same manner as in the measurement of the PGE2 concentration in the system containing the test substance, except that neither the test substance nor bradykinin (inflammatory stimulating agent) was added. […]

[2] = system: PGI2 production in SW982 cell; experiment: PGI2 production inhibitory action (6-keto-PGF1α enzyme immunoassay) in bradykinin-stimulated SW982 cells; conditions: bradykinin 1 nM, 30 min, test substance 14 to 10,000 ng/mL, FIG. 5
Method: The compound represented by the Structural Formula (A) was evaluated for a PGI2 production inhibitory action as follows. PGI2 is metabolized to 6-keto-PGF1α (6-keto-prostaglandin F1α) which is a stabilized metabolite. Therefore, a concentration of PGI2 produced can be determined by measuring a concentration of 6-keto-PGF1α.
A SW982 cell which is human […] cell line (purchased from ATCC) was suspended into DMEM/F12 (manufactured by Thermo Fisher Scientific) containing 10% fetal bovine serum (manufactured by Biowest), followed by inoculating into a 96-well culture plate at 1×10^4 cells/well and incubating overnight. […]
As a negative control, a 6-keto-PGF1α concentration E was measured in the same manner as in the measurement of the 6-keto-PGF1α concentration in the system containing the test substance, except that neither the test substance nor bradykinin (inflammatory stimulating agent) was added.
As a positive control, a 6-keto-PGF1α concentration F was measured in the same manner as in the measurement of the 6-keto-PGF1α concentration in the system containing the test substance, except that the test substance was not added.
Based on the measurement result of 6-keto-PGF1α concentration in the each well, a 6-keto-PGF1α production rate was calculated according to the following Expression (2): 6-keto-PGF1α production rate (%)=(D−E)/(F−E)×100 Expression (2) […]

SW982 cell = experiment: Cytotoxicity test (Cell Counting Kit-8, cell proliferation rate); conditions: SW982 cells, 48 hours
Method: The compound represented by the Structural Formula (A) was evaluated for cytotoxicity as follows.
A SW982 cell (purchased from ATCC) at 2×10^3 cells/well was prepared with DMEM/F12 medium (manufactured by Thermo Fisher Scientific) containing 10% fetal bovine serum (manufactured by Nichirei Corporation), followed by inoculating into a 96-well culture plate so that each well contained 0.1 mL. At the same time, the test substance produced in Production Example 1 (the compound represented by the Structural Formula (A)) was added to each well at a concentration described in the following Table 1, followed by incubating for 48 hours under a condition of 37° C. and 5% CO2. After the incubation for 48 hours, 10 μL of a cytometric kit (CELL COUNTING KIT-8, manufactured by DOJINDO LABORATORIES) was added to the each well, followed by incubating for 2 hours. Then, an absorbance at 450 nm G was measured.
The cytometric kit allows living cells to develop a color. Accordingly, the higher absorbance at 450 nm is, the larger the number of living cells is, that is, cell proliferation is not affected. Therefore, based on the measurement result of absorbance in the each well, a cell proliferation rate was calculated according to the following Expression (3) to thereby evaluate an influence upon the cell proliferation: Cell proliferation rate (%)=G/H×100 Expression (3)
G denotes an absorbance at 450 nm in the system containing the test substance, and
H denotes an absorbance at 450 nm in the system containing no test substance (i.e., at a concentration of 0 nM in the following Table 1).

`COC1=C(C)C(=O)c2ccc(OC3OC(C)C(O)C(O)C3O)c(NNC(C)=O)c2C1=O` (stereo not shown) [Structural Formula (A)] was tested, and the PGE2 production rate [1] was “decreased”, the 6-keto-PGF1α production rate [2] was “decreased” and the “Cell proliferation rate (%)” value (SW982 cell; concentration 111 nM) was 100%. The “Cell proliferation rate (%)” value (SW982 cell; concentration 333 nM) was 103%, the “Cell proliferation rate (%)” value (SW982 cell; concentration 10,000 nM) was 111% and the “Cell proliferation rate (%)” value (SW982 cell; concentration 30,000 nM) was 95%. For the same compound, the “Effect on cell proliferation of the SW982 cell” value (SW982 cell; up to 30,000 nM (Table 1)) was “not to affect cell proliferation”.
